The results in this text go back to patent US10800785B2, “Substituted pyrrolo[2,3-d]pyridazin-4-ones and pyrazolo[3,4-d]pyridazin-4-ones as protein kinase inhibitors” (Shanghai Fochon Pharmaceutical Co., Ltd., priority 2016, dated 2020).

The assay deals with DOHH2 cells. As to the kind of experiment: Cell proliferation assay (MTS) in DOHH2 cells, mechanism-based assay for BTK inhibition. The note with it: Homo sapiens, DOHH-2, 120 h incubation, 5000 cells/well. From the text:
Cell Proliferation Assays
MTS testing kit was purchased from Promega. The DMEM, Fetal bovine serum and Penicillin-Streptomycin were purchased from Gibco. Dimethyl sulfoxide (DMSO) was purchased from Sigma.
To investigate whether a compound is able to inhibit the activity of BTK in cells, a mechanism-based assay using DOHH2 (DSMZ catalog#: ACC47) and Mino (ATCC® Number CRL-3000™) cells was developed. In this assay, inhibition of BTK was detected by the inhibition of DOHH2 and Mino cell proliferations. DOHH2 or Mino cells were cultured in culture flasks to 40-80% confluence in RPMI-1640 plus 10% fetal bovine serum. C ells were collected and plated onto 96-well plates at desired cell density (DOHH2: 5000 cells/well; Mino: 10000 cells/well). Plates were incubated overnight at 37° C., with 5% CO2 to adhere. Compounds were added to the plates, and the final compound concentrations were 10000, 3333, 1111, […], 41, 14, 4.6 and 1.5 nM. Plates were placed at 37° C., with 5% CO2 for 120 h (DOHH2) or 72 h (Mino). 20 μl MTS/100 μl medium mixture solution were added to each well and the plates were incubated for exactly 2 hours. The reaction was stopped by adding 25 μl 10% SDS per well.
Select compounds prepared as described above were assayed according to the biological procedures described herein.
For the compound `C=CC(=O)N1CCC(c2cn(-c3ccc(Oc4ccccc4)cc3)c3c(N)n[nH]c(=O)c23)C1` (centres unmarked) [Example 1, 3-(1-acryloylpyrrolidin-3-yl)-7-amino-1-(4-phenoxyphenyl)-1,5-dihydro-4H-pyrrolo[2,3-d]pyridazin-4-one], the IC50 (commonly the concentration at which inhibition is half-maximal) worked out at 36 nM. This counts as double-digit nanomolar.
Compound `CC#CC(=O)N1CCC(c2cn(-c3ccc(Oc4ccccc4)cc3)c3c(N)n[nH]c(=O)c23)C1` (centres unmarked) [Example 2, 7-amino-3-(1-(but-2-ynoyl)pyrrolidin-3-yl)-1-(4-phenoxyphenyl)-1,5-dihydro-4H-pyrrolo[2,3-d]pyridazin-4-one] showed a 50% inhibitory concentration (IC50) of 244 nM.
With `C=CC(=O)N1CCC(c2cn(-c3ccc(Oc4c(F)cccc4F)cc3)c3c(N)n[nH]c(=O)c23)C1` (centres unmarked) [Example 3, 3-(1-acryloylpyrrolidin-3-yl)-7-amino-1-(4-(2,6-difluorophenoxy)phenyl)-1,5-dihydro-4H-pyrrolo[2,3-d]pyridazin-4-one], the IC50 came to 147 nM. Against the preceding compound, the IC50 is about 1.7-fold lower.
The figure for `CC#CC(=O)N1CCC(c2cn(-c3ccc(Oc4c(F)cccc4F)cc3)c3c(N)n[nH]c(=O)c23)C1` (centres unmarked) [Example 4, 7-amino-3-(1-(but-2-ynoyl)pyrrolidin-3-yl)-1-(4-(2,6-difluorophenoxy)phenyl)-1,5-dihydro-4H-pyrrolo[2,3-d]pyridazin-4-one] is 250 nM; for `C=CC(=O)N1CCC(c2nn(-c3ccc(Oc4ccccc4)cc3)c3c(N)n[nH]c(=O)c23)C1` (centres unmarked) [Example 5, 3-(1-acryloylpyrrolidin-3-yl)-7-amino-1-(4-phenoxyphenyl)-1,5-dihydro-4H-pyrazolo[3,4-d]pyridazin-4-one] it is 25 nM; for `CC#CC(=O)N1CCC(c2nn(-c3ccc(Oc4ccccc4)cc3)c3c(N)n[nH]c(=O)c23)C1` (centres unmarked) [Example 6, 7-amino-3-(1-(but-2-ynoyl)pyrrolidin-3-yl)-1-(4-phenoxyphenyl)-1,5-dihydro-4H-pyrazolo[3,4-d]pyridazin-4-one] it is 179 nM.
The figure for `C=CC(=O)N1CCC(c2nn(-c3ccc(Oc4c(F)cccc4F)cc3)c3c(N)n[nH]c(=O)c23)C1` (centres unmarked) [Example 7, 3-(1-acryloylpyrrolidin-3-yl)-7-amino-1-(4-(2,6-difluorophenoxy)phenyl)-1,5-dihydro-4H-pyrazolo[3,4-d]pyridazin-4-one] is 182 nM; for `CC#CC(=O)N1CCC(c2nn(-c3ccc(Oc4c(F)cccc4F)cc3)c3c(N)n[nH]c(=O)c23)C1` (centres unmarked) [Example 8, 7-amino-3-(1-(but-2-ynoyl)pyrrolidin-3-yl)-1-(4-(2,6-difluorophenoxy)phenyl)-1,5-dihydro-4H-pyrazolo[3,4-d]pyridazin-4-one] it is 304 nM.
`C=CC(=O)N1CC[C@@H](c2cn(-c3ccc(Oc4ccccc4)cc3)c3c(N)n[nH]c(=O)c23)C1` [Example 9, (S)-3-(1-acryloylpyrrolidin-3-yl)-7-amino-1-(4-phenoxyphenyl)-1,5-dihydro-4H-pyrrolo[2,3-d]pyridazin-4-one] came in with an IC50 of 32 nM.
The figure for `C=CC(=O)N1CC[C@H](c2cn(-c3ccc(Oc4ccccc4)cc3)c3c(N)n[nH]c(=O)c23)C1` [Example 10, (R)-3-(1-acryloylpyrrolidin-3-yl)-7-amino-1-(4-phenoxyphenyl)-1,5-dihydro-4H-pyrrolo[2,3-d]pyridazin-4-one] is 20 nM; for `C=CC(=O)N1CCC[C@@H](c2cn(-c3ccc(Oc4ccccc4)cc3)c3c(N)n[nH]c(=O)c23)C1` [Example 11, (S)-3-(1-acryloylpiperidin-3-yl)-7-amino-1-(4-phenoxyphenyl)-1,5-dihydro-4H-pyrrolo[2,3-d]pyridazin-4-one] it is 40 nM; for `C=CC(=O)N1CCC[C@H](c2cn(-c3ccc(Oc4ccccc4)cc3)c3c(N)n[nH]c(=O)c23)C1` [Example 12, (R)-3-(1-acryloylpiperidin-3-yl)-7-amino-1-(4-phenoxyphenyl)-1,5-dihydro-4H-pyrrolo[2,3-d]pyridazin-4-one] it is 74 nM.
To `C=CC(=O)N1CC[C@@H](c2nn(-c3ccc(Oc4ccccc4)cc3)c3c(N)n[nH]c(=O)c23)C1` [Example 13, (R)-3-(1-acryloylpyrrolidin-3-yl)-7-amino-1-(4-phenoxyphenyl)-1,5-dihydro-4H-pyrazolo[3,4-d]pyridazin-4-one] belongs 107 nM; to `C=CC(=O)N1CC[C@H](c2nn(-c3ccc(Oc4ccccc4)cc3)c3c(N)n[nH]c(=O)c23)C1` [Example 14, (S)-3-(1-acryloylpyrrolidin-3-yl)-7-amino-1-(4-phenoxyphenyl)-1,5-dihydro-4H-pyrazolo[3,4-d]pyridazin-4-one], 50 nM; to `C=CC(=O)N1CCC[C@@H](c2nn(-c3ccc(Oc4ccccc4)cc3)c3c(N)n[nH]c(=O)c23)C1` [Example 15, (R)-3-(1-acryloylpiperidin-3-yl)-7-amino-1-(4-phenoxyphenyl)-1,5-dihydro-4H-pyrazolo[3,4-d]pyridazin-4-one], 40 nM.
`C=CC(=O)N1CCC[C@H](c2nn(-c3ccc(Oc4ccccc4)cc3)c3c(N)n[nH]c(=O)c23)C1` [Example 16, (S)-3-(1-acryloylpiperidin-3-yl)-7-amino-1-(4-phenoxyphenyl)-1,5-dihydro-4H-pyrazolo[3,4-d]pyridazin-4-one] came in with an IC50 of 37 nM. This IC50 and that of the compound before are within 1.5-fold of each other.
In the case of `C=CC(=O)N1CC[C@@H](c2cn(-c3ccc(Oc4ccccc4F)cc3)c3c(N)n[nH]c(=O)c23)C1` [Example 17, (S)-3-(1-acryloylpyrrolidin-3-yl)-7-amino-1-(4-(2-fluorophenoxy)phenyl)-1,5-dihydro-4H-pyrrolo[2,3-d]pyridazin-4-one], inhibition was half-maximal at 21 nM (IC50).
In turn, `C=CC(=O)N1CC[C@@H](c2cn(-c3ccc(Oc4cccc(F)c4)cc3)c3c(N)n[nH]c(=O)c23)C1` [Example 18, (S)-3-(1-acryloylpyrrolidin-3-yl)-7-amino-1-(4-(3-fluorophenoxy)phenyl)-1,5-dihydro-4H-pyrrolo[2,3-d]pyridazin-4-one] yielded an IC50 of 181 nM.
The figure for `C=CC(=O)N1CC[C@@H](c2cn(-c3ccc(Oc4c(F)cccc4F)cc3)c3c(N)n[nH]c(=O)c23)C1` [Example 21] is 100 nM; for `C=CC(=O)N1CC[C@@H](c2cn(-c3ccc(Oc4cc(F)cc(F)c4)cc3)c3c(N)n[nH]c(=O)c23)C1` [Example 22, (S)-3-(1-acryloylpyrrolidin-3-yl)-7-amino-1-(4-(3,5-difluorophenoxy)phenyl)-1,5-dihydro-4H-pyrrolo[2,3-d]pyridazin-4-one] it is 86 nM.
As to `C=CC(=O)N1CC[C@H](c2cn(-c3ccc(Oc4ccccc4F)cc3)c3c(N)n[nH]c(=O)c23)C1` [Example 23, (R)-3-(1-acryloylpyrrolidin-3-yl)-7-amino-1-(4-(2-fluorophenoxy)phenyl)-1,5-dihydro-4H-pyrrolo[2,3-d]pyridazin-4-one], the IC50 was 42 nM.
Consider `C=CC(=O)N1CC[C@H](c2cn(-c3ccc(Oc4cccc(F)c4)cc3)c3c(N)n[nH]c(=O)c23)C1` [Example 24, (R)-3-(1-acryloylpyrrolidin-3-yl)-7-amino-1-(4-(3-fluorophenoxy)phenyl)-1,5-dihydro-4H-pyrrolo[2,3-d]pyridazin-4-one], for which the IC50 was 373 nM.
The compound `C=CC(=O)N1CC[C@H](c2cn(-c3ccc(Oc4cccc(F)c4F)cc3)c3c(N)n[nH]c(=O)c23)C1` [Example 26, (R)-3-(1-acryloylpyrrolidin-3-yl)-7-amino-1-(4-(2,3-difluorophenoxy)phenyl)-1,5-dihydro-4H-pyrrolo[2,3-d]pyridazin-4-one] showed a concentration for half-maximal inhibition (IC50) of 260 nM. The IC50 values of the last two compounds are within 1.5-fold of each other.
